Test results: patent publication US12540131B2 (Merck Sharp & Dohme LLC, priority 2019, dated 2026)

Target: GST tagged truncated human mutant G2019S LRRK2 (Homo sapiens (Human), UniProt Q5S007, G2019S)
Assay: LRRK2 Km ATP LanthaScreen Assay
Assay type: biochemical
Conditions: G2019S LRRK2, 134 μM ATP (Km ATP), mean values
How it was run: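 Enzyme (GST-tagged, truncated) was preincubated with compound for 15 min at RT in 50 mM Tris pH 8.5, 10 mM MgCl2, 0.01% Brij-35, 1 mM EGTA, 2 mM DTT and 0.05 mM orthovanadate. Fluorescein-LRRKtide and 134 μM ATP (Km) were then added for 90 min. EDTA and Tb-anti-pERM antibody stopped the reaction; the TR-FRET 520/495 ratio gave 4-parameter IC50s, reported as mean pIC50.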

GST tagged truncated human mutant G2019S LRRK2, sequence (Q5S007 970-2527 G2019S): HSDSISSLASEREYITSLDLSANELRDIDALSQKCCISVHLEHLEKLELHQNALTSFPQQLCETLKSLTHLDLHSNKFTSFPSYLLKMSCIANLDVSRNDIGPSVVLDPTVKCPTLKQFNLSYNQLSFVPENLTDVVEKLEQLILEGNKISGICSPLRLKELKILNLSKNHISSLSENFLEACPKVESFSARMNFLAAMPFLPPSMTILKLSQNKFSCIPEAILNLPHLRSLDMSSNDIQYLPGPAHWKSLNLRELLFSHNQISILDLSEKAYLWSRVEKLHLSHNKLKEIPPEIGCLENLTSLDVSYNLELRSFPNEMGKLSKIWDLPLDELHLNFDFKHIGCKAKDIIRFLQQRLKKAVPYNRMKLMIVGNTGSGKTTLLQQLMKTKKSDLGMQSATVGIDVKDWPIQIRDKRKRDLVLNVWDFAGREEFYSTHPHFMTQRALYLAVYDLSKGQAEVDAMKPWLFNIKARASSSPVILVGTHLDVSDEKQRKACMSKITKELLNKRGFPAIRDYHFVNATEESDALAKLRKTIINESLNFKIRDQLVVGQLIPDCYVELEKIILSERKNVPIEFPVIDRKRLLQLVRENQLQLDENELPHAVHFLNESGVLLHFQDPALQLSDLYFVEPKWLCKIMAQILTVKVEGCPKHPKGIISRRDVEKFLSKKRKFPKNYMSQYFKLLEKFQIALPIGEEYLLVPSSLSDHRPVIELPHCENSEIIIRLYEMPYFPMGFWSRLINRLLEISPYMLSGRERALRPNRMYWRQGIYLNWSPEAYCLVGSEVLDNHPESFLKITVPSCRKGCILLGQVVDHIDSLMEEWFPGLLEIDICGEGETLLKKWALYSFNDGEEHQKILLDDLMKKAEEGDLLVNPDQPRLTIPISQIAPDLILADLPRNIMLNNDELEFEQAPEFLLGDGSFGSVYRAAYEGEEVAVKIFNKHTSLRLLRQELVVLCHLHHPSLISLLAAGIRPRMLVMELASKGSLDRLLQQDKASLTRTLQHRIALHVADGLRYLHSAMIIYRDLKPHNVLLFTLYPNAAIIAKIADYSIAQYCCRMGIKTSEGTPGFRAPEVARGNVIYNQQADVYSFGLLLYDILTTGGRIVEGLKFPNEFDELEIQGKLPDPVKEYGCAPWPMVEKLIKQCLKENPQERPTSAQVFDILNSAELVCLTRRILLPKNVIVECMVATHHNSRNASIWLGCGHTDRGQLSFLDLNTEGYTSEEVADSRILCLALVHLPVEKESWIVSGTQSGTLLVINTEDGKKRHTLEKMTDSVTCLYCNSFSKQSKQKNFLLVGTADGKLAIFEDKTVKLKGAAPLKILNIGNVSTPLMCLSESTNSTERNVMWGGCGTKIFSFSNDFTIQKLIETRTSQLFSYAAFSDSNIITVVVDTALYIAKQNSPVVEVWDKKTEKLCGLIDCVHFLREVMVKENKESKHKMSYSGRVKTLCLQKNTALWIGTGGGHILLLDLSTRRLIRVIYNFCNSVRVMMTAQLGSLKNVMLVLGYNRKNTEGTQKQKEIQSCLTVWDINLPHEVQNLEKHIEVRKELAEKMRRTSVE

SMILES | LRRK2 pIC50
F[C@H]1CN(C2COC2)CC[C@@H]1c1cc2nc(Nc3cnn(C4CC4(F)F)c3Cl)ncc2cc1Cl (single isomer, unassigned) [Ex-8.31, (R)(3S,4S) or (S)(3S,4S) or (R)(3R,4R) or (S)(3R,4R) 6-chloro-N-[5-chloro-1-(2,2-difluorocyclopropyl)-1H-pyrazol-4-yl]-7-[3-fluoro-1-(oxetan-3-yl)piperidin-4-yl]quinazolin-2-amine] | >9.20
Cc1c(Nc2ncc3cc(Cl)c(C4CCN(C[C@H](O)c5ccccc5F)CC4)cc3n2)cnn1C1CC1 [Ex-4.203, (1R)-2-(4-{6-chloro-2-[(1-cyclopropyl-5-methyl-1H-pyrazol-4-yl)amino]quinazolin-7-yl}piperidin-1-yl)-1-(2-fluorophenyl)ethan-1-ol] | 8.03
Cc1cc(Nc2ncc3cc(C)c([C@H]4CCN([C@H]5COC[C@H]5O)C[C@@H]4F)cc3n2)n(C)n1 (single isomer, unassigned) [Ex-5.12, (3S,4S)(3S,4S) or (3S,4S)(3R,4R) or (3R,4R)(3S,4S) or (3R,4R)(3R,4R) 4-(4-{2-[(1,3-dimethyl-1H-pyrazol-5-yl)amino]-6-methylquinazolin-7-yl}-3-fluoropiperidin-1-yl)oxolan-3-ol] | 6.03
Cc1cc2cnc(Nc3cnn(C)c3Cl)nc2cc1C1CCN([C@@H]2COC[C@@H]2O)CC1 (single isomer, unassigned) [Ex-2.78, (3S,4S) or (3R,4R) 4-(4-{2-[(5-chloro-1-methyl-1H-pyrazol-4-yl)amino]-6-methylquinazolin-7-yl}piperidin-1-yl)oxolan-3-ol] | >9.20
CC1CC(c2cc3nc(Nc4cnn(C5CC5)c4Cl)ncc3cc2Cl)CC(C)N1C1COC1 (stereo not drawn) [Ex-4.118, cis or trans 6-chloro-N-(5-chloro-1-cyclopropyl-1H-pyrazol-4-yl)-7-(2,6-dimethyl-1-(oxetan-3-yl)piperidin-4-yl)quinazolin-2-amine] | 8.46
Cc1c(Nc2ncc3cc(Cl)c([C@H]4CCN(C5COC5)C[C@@H]4F)cc3n2)cnn1C1CC1(F)F (single isomer, unassigned) [Ex-4.176, (R)(3S,4S) or (S)(3S,4S) or (R)(3R,4R) or (S)(3R,4R) 6-chloro-N-[1-(2,2-difluorocyclopropyl)-5-methyl-1H-pyrazol-4-yl]-7-[(3R,4R)-3-fluoro-1-(oxetan-3-yl)piperidin-4-yl]quinazolin-2-amine] | 8.73
CC1(N2CCC(n3ncc(Nc4ncc5cc(Cl)c(C6CC6(F)F)cc5n4)c3Cl)C(F)C2)COC1 (single isomer, unassigned) [Ex-3.1, (3R,4R)(7S) or (3R,4R)(7R) or (3S,4S)(7S) or (3S,4S)(7R) 6-chloro-N-(5-chloro-1-(3-fluoro-1-(3-methyloxetan-3-yl)piperidin-4-yl)-1H-pyrazol-4-yl)-7-(2,2-difluorocyclopropyl)quinazolin-2-amine] | 7.54
C[C@@]1(N2CC[C@@H](c3cc4nc(Nc5cnn(C6CC6(F)F)c5Cl)ncc4cc3Cl)[C@H](F)C2)COC[C@@H]1O (single isomer, unassigned) [Ex-4.230, (R)(3S,4S)(3S,4S) or (R)(3S,4S)(3R,4R) or (R)(3R,4R)(3S,4S) or (R)(3R,4R)(3R,4R) or (S)(3S,4S)(3S,4S) or (S)(3S,4S)(3R,4R) or (S)(3R,4R)(3S,4S) or (S)(3R,4R)(3R,4R) 4-(4-(6-chloro-2-((5-chloro-1-(2,2-difluorocyclopropyl)-1H-pyrazol-4-yl)amino)quinazolin-7-yl)-3-fluoropiperidin-1-yl)-4-methyltetrahydrofuran-3-ol] | 9.13
F[C@@H]1CN(C2COC2)CC[C@H]1c1cc2nc(Nc3cnn(C4CC4(F)F)c3Cl)ncc2cc1Cl (single isomer, unassigned) [Ex-8.28, (R)(3S,4S) or (S)(3S,4S) or (R)(3R,4R) or (S)(3R,4R) 6-chloro-N-[5-chloro-1-(2,2-difluorocyclopropyl)-1H-pyrazol-4-yl]-7-[3-fluoro-1-(oxetan-3-yl)piperidin-4-yl]quinazolin-2-amine] | 9.04
F[C@@H]1CN(C2COC2)CC[C@H]1c1cc2nc(Nc3cnn(C4CC4)c3Cl)ncc2cc1Cl (single isomer, unassigned) [Ex-4.34, (3S,4S) or (3R,4R) 6-chloro-N-(5-chloro-1-cyclopropyl-1H-pyrazol-4-yl)-7-[3-fluoro-1-(oxetan-3-yl)piperidin-4-yl]quinazolin-2-amine] | 9.12
Cc1cc2cnc(Nc3cnn(CC(C)(C)O)c3Cl)nc2cc1C1CCN(C2COC2)CC1 [Ex-4.80, 1-[5-chloro-4-({6-methyl-7-[1-(oxetan-3-yl)piperidin-4-yl]quinazolin-2-yl}amino)-1H-pyrazol-1-yl]-2-methylpropan-2-ol] | 8.87
COC[C@]12C[C@](n3ncc(Nc4ncc5cc(Cl)c(C6CCN(C7(C)COC7)CC6)cc5n4)c3Cl)(C1)C2 [Ex-8.40] | >9.20
Cc1c(Nc2ncc3cc(Cl)c(C4CCN(C[C@@H](O)c5cccc(F)c5)CC4)cc3n2)cnn1C1CC1 [Ex-4.196, (1S)-2-(4-{6-chloro-2-[(1-cyclopropyl-5-methyl-1H-pyrazol-4-yl)amino]quinazolin-7-yl}piperidin-1-yl)-1-(3-fluorophenyl)ethan-1-ol] | 8.87
CN1CC[C@@H](c2cc3nc(Nc4cnn(C5(C)CC5)c4Cl)ncc3cc2Cl)[C@H](O)C1 (single isomer, unassigned) [Ex-4.29, (3S,4S) or (3R,4R) 4-(6-chloro-2-{[5-chloro-1-(1-methylcyclopropyl)-1H-pyrazol-4-yl]amino}quinazolin-7-yl)-1-methylpiperidin-3-ol] | 8.07
Cc1cc(Nc2ncc3cc(Cl)c(C4CCN([C@H]5COC[C@H]5O)CC4)cc3n2)n(C)n1 (single isomer, unassigned) [Ex-2.68, (3S,4S) or (3R,4R) 4-(4-{6-chloro-2-[(1,3-dimethyl-1H-pyrazol-5-yl)amino]quinazolin-7-yl}piperidin-1-yl)oxolan-3-ol] | >9.20
Cc1c(Nc2ncc3cc(Cl)c(C4CCN(C5CCC(CC#N)C5)CC4)cc3n2)cnn1C1CC1 (single isomer, unassigned) [Ex-4.168, (1R,3R) or (1S,3R) or (1R,3S) or (1S,3S) [3-(4-{6-chloro-2-[(1-cyclopropyl-5-methyl-1H-pyrazol-4-yl)amino]quinazolin-7-yl}piperidin-1-yl)cyclopentyl]acetonitrile] | 8.88
Cc1nsc(Nc2ncc3cc(Cl)c([C@@H]4CCN(C5CCOC5)C[C@H]4F)cc3n2)c1Cl (single isomer, unassigned) [Ex-8.20, (3S,4S)(S) or (3S,4S)(R) or (3R,4R)(S) or (3R,4R)(R) 6-chloro-N-(4-chloro-3-methyl-1,2-thiazol-5-yl)-7-[3-fluoro-1-(oxolan-3-yl)piperidin-4-yl]quinazolin-2-amine] | 8.53
CC1OCC1N1CCC(c2cc3nc(Nc4cnn(CC(C)(C)O)c4Cl)ncc3cc2Cl)CC1 (single isomer, unassigned) [Ex-4.76, (2R,3R) or (2S,3S) or (2S,3R) or (2R,3S) 1-[5-chloro-4-({6-chloro-7-[1-(2-methyloxetan-3-yl)piperidin-4-yl]quinazolin-2-yl}amino)-1H-pyrazol-1-yl]-2-methylpropan-2-ol] | >9.20

Same assay, conditions: G2019S LRRK2, 134 μM ATP (Km ATP), mean values; read-out: LRRK2 pIC50 (converted)

SMILES | IC50 [nM]
CCn1ncc(Nc2ncc3cc(Cl)c(C4CC45CC5)cc3n2)c1C (single isomer, unassigned) [Ex-1.1, (S) or (R) 6-chloro-N-(1-ethyl-5-methyl-1H-pyrazol-4-yl)-7-(spiro[2.2]pentan-1-yl)quinazolin-2-amine] | 11.7
CC(C)(O)CN1CCC(c2cc3nc(Nc4cnn(C5CC5)c4)ncc3cc2Cl)C1 (single isomer, unassigned) [Ex-1.9, (S) or (R) 1-(3-{6-chloro-2-[(1-cyclopropyl-1H-pyrazol-4-yl)amino]quinazolin-7-yl}pyrrolidin-1-yl)-2-methylpropan-2-ol] | 30.2
Cc1c(Nc2ncc3cc(Cl)c(C4CCN(CC(O)c5ccc(C#N)cc5)CC4)cc3n2)cnn1C1CC1 (single isomer, unassigned) [Ex-4.226, (S) or (R) 4-[2-(4-{6-chloro-2-[(1-cyclopropyl-5-methyl-1H-pyrazol-4-yl)amino]quinazolin-7-yl}piperidin-1-yl)-1-hydroxyethyl]benzonitrile] | 3.72
CC1(n2ncc(Nc3ncc4cc(Cl)c(C5CCN(C6COC6)C5)cc4n3)c2Cl)CC1 (single isomer, unassigned) [Ex-4.26, (S) or (R) 6-chloro-N-[5-chloro-1-(1-methylcyclopropyl)-1H-pyrazol-4-yl]-7-[1-(oxetan-3-yl)pyrrolidin-3-yl]quinazolin-2-amine] | 4.9
Cc1cc2cnc(Nc3cnn(C4(C)CC4)c3C)nc2cc1C1CCN(CCC#N)CC1 [Ex-5.1, 3-(4-(6-methyl-2-((5-methyl-1-(1-methylcyclopropyl)-1H-pyrazol4-yl)amino)quinazolin-7-yl)piperidin-1-yl)propanenitrile] | < 0.631
F[C@@H]1CNCC[C@H]1c1cc2nc(Nc3cnn(C4CC4)c3Cl)ncc2cc1Cl (single isomer, unassigned) [Ex-4.2, (3S,4S) or (3R,4R) 6-chloro-N-(5-chloro-1-cyclopropyl-1H-pyrazol-4-yl)-7-(3-fluoropiperidin-4-yl)quinazolin-2-amine] | < 0.631
